{"source": "patent US20230143596A1", "about": "“PESTICIDALLY ACTIVE DIAZINE-BISAMIDE COMPOUNDS” (SYNGENTA CROP PROTECTION AG, priority 2020, published 2023)", "key": {"Diabrotica balteata": {"test_system": "Diabrotica balteata", "assay": "Example B1: Diabrotica balteata (corn root worm), maize sprouts sprayed", "format": "in vivo", "details": "96 h, application rate 200 ppm, L2 larvae, 4 days after infestation, vs untreated, read-out: control in at least one of the two categories (mortality or growth inhibition)", "description": "Example B1: Diabrotica balteata (Corn Root Worm)\nMaize sprouts placed onto an agar layer in 24-well microtiter plates were treated with aqueous test solutions prepared from 10′000 ppm DMSO stock solutions by spraying. After drying, the plates were infested with L2 larvae (6 to 10 per well). The samples were assessed for mortality and growth inhibition in comparison to untreated samples 4 days after infestation.\n(§1) The following compounds gave an effect of at least 80% control in at least one of the two categories (mortality or growth inhibition) at an application rate of 200 ppm: […]"}, "Euschistus heros": {"test_system": "Euschistus heros", "assay": "Example B2: Euschistus heros (neotropical brown stink bug), soybean leaves sprayed", "format": "in vivo", "details": "120 h, application rate 200 ppm, N2 nymphs, 5 days after infestation, vs untreated, read-out: control in at least one of the two categories (mortality or growth inhibition)", "description": "Example B2: Euschistus heros (Neotropical Brown Stink Bug)\nSoybean leaves on agar in 24-well microtiter plates were sprayed with aqueous test solutions prepared from 10′000 ppm DMSO stock solutions. After drying the leaves were infested with N2 nymphs. The samples were assessed for mortality and growth inhibition in comparison to untreated samples 5 days after infestation.\nas §1"}, "Chilo suppressalis": {"test_system": "Chilo suppressalis", "assay": "Example B3: Chilo suppressalis (striped rice stemborer), artificial diet", "format": "in vivo", "details": "144 h, application rate 200 ppm, L2 larvae, 6 days after infestation, vs untreated, read-out: control in at least one of the three categories (mortality, anti-feedant effect, or growth inhibition)", "description": "Example B3: Chilo suppressalis (Striped Rice Stemborer)\n24-well microtiter plates with artificial diet were treated with aqueous test solutions prepared from 10′000 ppm DMSO stock solutions by pipetting. After drying, the plates were infested with L2 larvae (6-8 per well). The samples were assessed for mortality, anti-feeding effect, and growth inhibition in comparison to untreated samples 6 days after infestation. Control of Chilo suppressalis by a test sample is given when at least one of the categories mortality, anti-feedant effect, and growth inhibition is higher than the untreated sample."}, "Plutella xylostella": {"test_system": "Plutella xylostella", "assay": "Example B4: Plutella xylostella (diamond back moth), artificial diet", "format": "in vivo", "details": "192 h, application rate 200 ppm, eggs, 8 days after infestation, vs untreated, read-out: control in at least one of the two categories (mortality or growth inhibition)", "description": "Example B4: Plutella xylostella (Diamond Back Moth)\n24-well microtiter plates with artificial diet were treated with aqueous test solutions prepared from 10′000 ppm DMSO stock solutions by pipetting. After drying, Plutella eggs were pipetted through a plastic stencil onto a gel blotting paper and the plate was closed with it. The samples were assessed for mortality and growth inhibition in comparison to untreated samples 8 days after infestation. The following compounds gave an effect of at least 80% control in at least one of the two categories (mortality or growth inhibition) at an application rate of 200 ppm: […]"}, "Spodoptera littoralis": {"test_system": "Spodoptera littoralis", "assay": "Example B6: Spodoptera littoralis (Egyptian cotton leaf worm), cotton leaf discs sprayed", "format": "in vivo", "details": "foliar, 72 h, application rate 200 ppm, L1 larvae, 3 days after infestation, vs untreated, read-out: control in at least one of the three categories (mortality, anti-feedant effect, or growth inhibition)", "description": "Example B6: Spodoptera littoralis (Egyptian Cotton Leaf Worm)\nCotton leaf discs were placed onto agar in 24-well microtiter plates and sprayed with aqueous test solutions prepared from 10′000 ppm DMSO stock solutions. After drying the leaf discs were infested with five L1 larvae. The samples were assessed for mortality, anti-feeding effect, and growth inhibition in comparison to untreated samples 3 days after infestation. Control of Spodoptera littoralis by a test sample is given when at least one of the categories mortality, anti-feedant effect, and growth inhibition is higher than the untreated sample."}}}
{"smiles": "CCNC(=O)c1nccnc1C(C)NC(=O)c1cc(C(F)(F)F)cc(C(F)(F)F)c1", "note": "(stereo not shown) [Compound P1, 3-[1-[[3,5-bis(trifluoromethyl)benzoyl]amino]ethyl]-N-ethyl-pyrazine-2-carboxamide]", "values": [{"measurement": "percent control (mortality or growth inhibition) at 200 ppm", "setting": "Diabrotica balteata", "result": "≥ 80", "unit": "%"}, {"measurement": "percent control (mortality or growth inhibition) at 200 ppm", "setting": "Euschistus heros", "result": "≥ 80", "unit": "%"}, {"measurement": "percent control (mortality, anti-feedant effect or growth inhibition) at 200 ppm", "setting": "Chilo suppressalis", "result": "≥ 80", "unit": "%"}, {"measurement": "percent control (mortality or growth inhibition) at 200 ppm", "setting": "Plutella xylostella", "result": "≥ 80", "unit": "%"}, {"measurement": "percent control (mortality, anti-feedant effect or growth inhibition) at 200 ppm", "setting": "Spodoptera littoralis", "result": "≥ 80", "unit": "%"}]}
{"smiles": "CCCCNC(=O)c1nccnc1C(C)NC(=O)c1cc(C(F)(F)F)cc(C(F)(F)F)c1", "note": "(stereo not shown) [Compound P3, 3-[1-[[3,5-bis(trifluoromethyl)benzoyl]amino]ethyl]-N-butyl-pyrazine-2-carboxamide]", "values": [{"measurement": "percent control (mortality, anti-feedant effect or growth inhibition) at 200 ppm", "setting": "Chilo suppressalis", "result": "≥ 80", "unit": "%"}]}
{"smiles": "CC(NC(=O)c1cc(C(F)(F)F)cc(C(F)(F)F)c1)c1nccnc1C(=O)NC1CC1", "note": "(stereo not shown) [Compound P5, 3-[1-[[3,5-bis(trifluoromethyl)benzoyl]amino]ethyl]-N-cyclopropyl-pyrazine-2-carboxamide]", "values": [{"measurement": "percent control (mortality, anti-feedant effect or growth inhibition) at 200 ppm", "setting": "Chilo suppressalis", "result": "≥ 80", "unit": "%"}, {"measurement": "percent control (mortality or growth inhibition) at 200 ppm", "setting": "Plutella xylostella", "result": "≥ 80", "unit": "%"}, {"measurement": "percent control (mortality, anti-feedant effect or growth inhibition) at 200 ppm", "setting": "Spodoptera littoralis", "result": "≥ 80", "unit": "%"}]}
{"smiles": "C=CCNC(=O)c1nccnc1C(C)NC(=O)c1cc(C(F)(F)F)cc(C(F)(F)F)c1", "note": "(stereo not shown) [Compound P6, N-allyl-3-[1-[[3,5-bis(trifluoromethyl)benzoyl]amino]ethyl]pyrazine-2-carboxamide]", "values": [{"measurement": "percent control (mortality, anti-feedant effect or growth inhibition) at 200 ppm", "setting": "Chilo suppressalis", "result": "≥ 80", "unit": "%"}, {"measurement": "percent control (mortality or growth inhibition) at 200 ppm", "setting": "Plutella xylostella", "result": "≥ 80", "unit": "%"}]}
{"smiles": "CCCNC(=O)c1nccnc1C(C)NC(=O)c1cc(C(F)(F)F)cc(C(F)(F)F)c1", "note": "(stereo not shown) [P.2, 3-[1-[[3,5-bis(trifluoromethyl)benzoyl]amino]ethyl]-N-propyl-pyrazine-2-carboxamide]", "values": [{"measurement": "melting point", "result": 127, "unit": "°C"}]}
{"smiles": "COCCNC(=O)c1nccnc1C(C)NC(=O)c1cc(C(F)(F)F)cc(C(F)(F)F)c1", "note": "(stereo not shown) [P.4, 3-[1-[[3,5-bis(trifluoromethyl)benzoyl]amino]ethyl]-N-(2-methoxyethyl)pyrazine-2-carboxamide]", "values": [{"measurement": "melting point", "result": 128, "unit": "°C"}]}
{"smiles": "CC(NC(=O)c1cc(C(F)(F)F)cc(C(F)(F)F)c1)c1nccnc1C(=O)Nc1ncccn1", "note": "(stereo not shown) [P.7, 3-[1-[[3,5-bis(trifluoromethyl)benzoyl]amino]ethyl]-N-pyrimidin-2-yl-pyrazine-2-carboxamide]", "values": [{"measurement": "melting point", "result": 201, "unit": "°C"}]}
{"smiles": "CCNC(=O)c1nccnc1C(C)NC(=O)c1cc(OCC(F)(F)F)cc(C(F)(F)F)c1", "note": "(stereo not shown) [P.8, N-ethyl-3-[1-[[3-(2,2,2-trifluoroethoxy)-5-(trifluoromethyl)benzoyl]amino]ethyl]pyrazine-2-carboxamide]", "values": [{"measurement": "melting point", "result": 136, "unit": "°C"}]}
{"smiles": "CCNC(=O)c1nccnc1C(C)NC(=O)c1cc(OCC(F)F)cc(C(F)(F)F)c1", "note": "(stereo not shown) [P.9, 3-[1-[[3-(2,2-difluoroethoxy)-5-(trifluoromethyl)benzoyl]amino]ethyl]-N-ethyl-pyrazine-2-carboxamide]", "values": [{"measurement": "melting point", "result": 134, "unit": "°C"}]}
{"smiles": "CC(NC(=O)c1cc(C(F)(F)F)cc(C(F)(F)F)c1)c1nccnc1C(=O)Nc1ccc(C#N)cn1", "note": "(stereo not shown) [P.10, 3-[1-[[3,5-bis(trifluoromethyl)benzoyl]amino]ethyl]-N-(5-cyano-2-pyridyl)pyrazine-2-carboxamide]", "values": [{"measurement": "melting point", "result": 215, "unit": "°C"}]}
{"smiles": "CC(NC(=O)c1cc(C(F)(F)F)cc(C(F)(F)F)c1)c1nccnc1C(=O)NCC#N", "note": "(stereo not shown) [P.11, 3-[1-[[3,5-bis(trifluoromethyl)benzoyl]amino]ethyl]-N-(cyanomethyl)pyrazine-2-carboxamide]", "values": [{"measurement": "melting point", "result": 193, "unit": "°C"}]}
{"smiles": "CC(NC(=O)c1cc(C(F)(F)F)cc(C(F)(F)F)c1)c1nccnc1C(=O)Nc1ccc(C#N)cc1", "note": "(stereo not shown) [P.12, 3-[1-[[3,5-bis(trifluoromethyl)benzoyl]amino]ethyl]-N-(4-cyanophenyl)pyrazine-2-carboxamide]", "values": [{"measurement": "melting point", "result": 241, "unit": "°C"}]}
{"smiles": "CCN(C)C(=O)c1nccnc1C(C)NC(=O)c1cc(C(F)(F)F)cc(C(F)(F)F)c1", "note": "(stereo not shown) [P.13, 3-[1-[[3,5-bis(trifluoromethyl)benzoyl]amino]ethyl]-N-ethyl-N-methyl-pyrazine-2-carboxamide]", "values": [{"measurement": "melting point", "result": 75, "unit": "°C"}]}
{"smiles": "CC(NC(=O)c1cc(C(F)(F)F)cc(C(F)(F)F)c1)c1nccnc1C(=O)N1CCOCC1", "note": "(stereo not shown) [P.14, N-[1-[3-(morpholine-4-carbonyl)pyrazin-2-yl]ethyl]-3,5-bis(trifluoromethyl)benzamide]", "values": [{"measurement": "melting point", "result": 81, "unit": "°C"}]}
{"smiles": "CC(NC(=O)c1cc(C(F)(F)F)cc(C(F)(F)F)c1)c1nccnc1C(=O)NC(C)(C)C#N", "note": "(stereo not shown) [P.15, 3-[1-[[3,5-bis(trifluoromethyl)benzoyl]amino]ethyl]-N-(1-cyano-1-methyl-ethyl)pyrazine-2-carboxamide]", "values": [{"measurement": "melting point", "result": 195, "unit": "°C"}]}
{"smiles": "CC(NC(=O)c1cc(C(F)(F)F)cc(C(F)(F)F)c1)c1nccnc1C(=O)NC1(C#N)CC1", "note": "(stereo not shown) [P.16, 3-[1-[[3,5-bis(trifluoromethyl)benzoyl]amino]ethyl]-N-(1-cyanocyclopropyl)pyrazine-2-carboxamide]", "values": [{"measurement": "melting point", "result": 123, "unit": "°C"}]}
{"smiles": "COCC(C)(C)NC(=O)c1nccnc1C(C)NC(=O)c1cc(C(F)(F)F)cc(C(F)(F)F)c1", "note": "(stereo not shown) [P.17, 3-[1-[[3,5-bis(trifluoromethyl)benzoyl]amino]ethyl]-N-(2-methoxy-1,1-dimethyl-ethyl)pyrazine-2-carboxamide]", "values": [{"measurement": "melting point", "result": 132, "unit": "°C"}]}
{"smiles": "COCC(C)NC(=O)c1nccnc1C(C)NC(=O)c1cc(C(F)(F)F)cc(C(F)(F)F)c1", "note": "(stereo not shown) [P.18, 3-[1-[[3,5-bis(trifluoromethyl)benzoyl]amino]ethyl]-N-(2-methoxy-1-methyl-ethyl)pyrazine-2-carboxamide]", "values": [{"measurement": "melting point", "result": 127, "unit": "°C"}]}
{"smiles": "CNC(=O)c1nccnc1C(C)NC(=O)c1cc(C(F)(F)F)cc(C(F)(F)F)c1", "note": "(stereo not shown) [P.19, 3-[1-[[3,5-bis(trifluoromethyl)benzoyl]amino]ethyl]-N-methyl-pyrazine-2-carboxamide]", "values": [{"measurement": "melting point", "result": 164, "unit": "°C"}]}
{"smiles": "CC(NC(=O)c1cc(C(F)(F)F)cc(C(F)(F)F)c1)c1nccnc1C(=O)NC1COC1", "note": "(stereo not shown) [P.20, 3-[1-[[3,5-bis(trifluoromethyl)benzoyl]amino]ethyl]-N-(oxetan-3-yl)pyrazine-2-carboxamide]", "values": [{"measurement": "melting point", "result": 68, "unit": "°C"}]}
{"smiles": "CC(NC(=O)c1cc(C(F)(F)F)cc(C(F)(F)F)c1)c1nccnc1C(=O)NCCC#N", "note": "(stereo not shown) [P.21, 3-[1-[[3,5-bis(trifluoromethyl)benzoyl]amino]ethyl]-N-(2-cyanoethyl) pyrazine-2-carboxamide]", "values": [{"measurement": "melting point", "result": 156, "unit": "°C"}]}
